Experimental data: patent US20150105252A1, “SUBSTITUTED PYRAZOLES AS HERBICIDES” (E I DU PONT DE NEMOURS AND COMPANY, priority 2013, published 2015)

What was measured:
crabgrass, naked = assay: Test E preemergence; format: in vivo, Digitaria nuda; settings: 21 days, scale 0 to 100
Excerpt: (§1) Seeds of plant species selected from bermudagrass (Cynodon dactylon), Surinam grass (Brachiaria decumbens), crabgrass, large (large crabgrass, Digitaria sanguinalis), crabgrass, naked (naked crabgrass, Digitaria nuda), foxtail, green (green foxtail, Setaria viridis), johnsongrass (Sorghum halepense), kochia (Kochia scoparia), morningglory (pitted morningglory, Ipomoea lacunosa), nutsedge, purple (purple nutsedge, Cyperus rotundus), ragweed (common ragweed, Ambrosia elation), mustard, black (black mustard, Brassica nigra), guineagrass (Panicum maximum), dallisgrass (Paspalum dilatatum), barnyardgrass (Echinochloa crus-galli), sandbur (southern sandbur, Cenchrus echinatus), sowthistle (common sowthistle, Sonchus oleraceous), ryegrass, Italian (Italian ryegrass, Lolium multiflorum), signalgrass (broadleaf signalgrass, Brachiaria platyphylla), dayflower, VA (Virginia (VA) dayflower, Commelina virginica), bluegrass (annual bluegrass, Poa annua), quackgrass (Elytrigia repens), mallow (common mallow, Malva sylvestris), buckwheat, wild (wild buckwheat, Polygonum convolvulus), leafy spurge (Euphorbia esula), common chickweed (Stellaria media), wild poinsettia (Euphorbia heterophylla), pigweed, palmer (palmer pigweed, Amaranthus palmeri), and pigweed (redroot pigweed, Amaranthus retroflexus) were planted into a blend of loam soil and sand and treated preemergence with test chemicals formulated in a non-phytotoxic solvent mixture which included a surfactant.
(§2) Treated plants and controls were maintained in a greenhouse for 21 days, after which time all species were compared to controls and visually evaluated. Plant response ratings, summarized in Table E, are based on a scale of 0 to 100 where 0 is no effect and 100 is complete control. A dash (-) response means no test result.

barnyardgrass = assay: Test E preemergence; format: in vivo, Echinochloa crus-galli; settings: 21 days, scale 0 to 100
Excerpt: as §1, §2

signalgrass = assay: Test E preemergence; format: in vivo, Brachiaria platyphylla; settings: 21 days, scale 0 to 100
Excerpt: as §1, §2

fall panicum = assay: Test F postemergence; format: in vivo, Panicum dichotomiflorum; settings: scale 0 to 100
Excerpt: (§3) Seeds of plant species selected from corn (Zea mays), soybean (Glycine max), velvetleaf (Abutilon theophrasti), lambsquarters (Chenopodium album), wild poinsettia (Euphorbia heterophylla), pigweed, palmer (palmer pigweed, Amaranthus palmeri), common waterhemp (Amaranthus rudis), surinam grass (Brachiaria decumbens), large crabgrass (Digitaria sanguinalis), crabgrass, Brazil (Brazilian crabgrass, Digitaria horizontalis), fall panicum (Panicum dichotomiflorum), giant foxtail (Setaria faberii), green foxtail (Setaria viridis), goosegrass (Eleusine indica), johnsongrass (Sorghum halepense), common ragweed (Ambrosia elation), barnyardgrass (Echinochloa crus-galli), southern sandbur (Cenchrus echinatus), arrowleaf sida (Sida rhombifolia), Italian ryegrass (Lolium multiflorum), dayflower, VA (Virginia (VA) dayflower, Commelina virginica), field bindweed (Convolvulus arvensis), cocklebur (common cocklebur, Xanthium strumarium), morningglory (Ipomoea coccinea), nightshade (eastern black nightshade, Solanum ptycanthum), kochia (Kochia scoparia), yellow nutsedge (Cyperus esculentus), and hairy beggarticks (Bidens pilosa), were planted into a silt loam soil and treated preemergence with test chemicals formulated in a non-phytotoxic solvent mixture which included a surfactant.
(§4) At the same time, plants from these crop and weed species and also horseweed (Canada horseweed, Conyza canadensis), smartweed (ladysthumb smartweed, Polygonum persicaria), waterhemp_RES1, (ALS & Triazine resistant common waterhemp, Amaranthus rudis), and waterhemp_RES2, (ALS & HPPD resistant common waterhemp, Amaranthus rudis) were treated with postemergence applications of test chemicals formulated in the same manner. Plants ranged in height from 2 to 18 cm for postemergence treatments (1- to 4-leaf stage). Treated plants and controls were maintained in a greenhouse for 14 to 21 days, after which time all species were compared to controls and visually evaluated. Plant response ratings, summarized in Table F, are based on a scale of 0 to 100 where 0 is no effect and 100 is complete control. A dash (-) response means no test result.

smartweed = assay: Test F postemergence; format: in vivo, Polygonum persicaria; settings: 500 g ai/ha, scale 0 to 100
Excerpt: as §3, §4

ryegrass, Italian = assay: Test D preemergence; format: in vivo, Lolium multiflorum; settings: scale 0 to 100
Excerpt: Seeds of plant species selected from bluegrass (annual bluegrass, Poa annua), blackgrass (Alopecurus myosuroides), canarygrass (littleseed canarygrass, Phalaris minor), chickweed (common chickweed, Stellaria media), galium (catchweed bedstraw, Galium aparine), bromegrass, downy (downy bromegrass, Bromus tectorum), field poppy (Papaver rhoeas), field violet (Viola arvensis), foxtail, green (green foxtail, Setaria viridis), deadnettle (henbit deadnettle, Lamium amplexicaule), ryegrass, Italian (Italian ryegrass, Lolium multiflorum), kochia (Kochia scoparia), lambsquarters (Chenopodium album), oilseed rape (Brassica napus), pigweed (redroot pigweed, Amaranthus retroflexus), chamomile (scentless chamomile, Matricaria inodora), speedwell (bird's-eye speedwell, Veronica persica), barley, spring (spring barley, Hordeum vulgare), wheat, spring (spring wheat, Triticum aestivum), buckwheat, wild (wild buckwheat, Polygonum convolvulus), mustard, wild (wild mustard, Sinapis arvensis), oat, wild (wild oat, Avena fatua), radish, wild (wild radish, Raphanus raphanistrum), windgrass (Apera spica-venti), Russian thistle (Salsola kali), barley, winter (winter barley, Hordeum vulgare), and wheat, winter (winter wheat, Triticum aestivum) were planted into a silt loam soil and treated preemergence with test chemicals formulated in a non-phytotoxic solvent mixture which included a surfactant.
At the same time, these species were planted in pots containing Redi-Earth® planting medium (Scotts Company, 14111 Scottslawn Road, Marysville, Ohio 43041) comprising spaghnum peat moss, vermiculite, wetting agent and starter nutrients and treated with postemergence applications of the test chemicals formulated in the same manner. Plants ranged in height from 2 to 18 cm (1- to 4-leaf stage). Treated plants and controls were maintained in a controlled growth environment for 14 to 21 days after which time all species were compared to controls and visually evaluated. Plant response ratings, summarized in Table D, are based on a scale of 0 to 100 where 0 is no effect and 100 is complete control. A dash (-) response means no test result.

Row | SMILES | Plant response rating, Crabgrass, Naked (crabgrass, naked; 31 g ai/ha) | Plant response rating, Crabgrass, Naked (crabgrass, naked; 62 g ai/ha) | Plant response rating, Crabgrass, Naked (crabgrass, naked; 125 g ai/ha) | Plant response rating, Crabgrass, Naked (crabgrass, naked; 250 g ai/ha) | Plant response rating, Barnyardgrass (barnyardgrass; 16 g ai/ha) | Plant response rating, Barnyardgrass (barnyardgrass; 31 g ai/ha) | Plant response rating, Barnyardgrass (barnyardgrass; 62 g ai/ha) | Plant response rating, Barnyardgrass (barnyardgrass; 125 g ai/ha) | Plant response rating, Barnyardgrass (barnyardgrass; 250 g ai/ha) | Plant response rating, Signalgrass (signalgrass; 16 g ai/ha) | Plant response rating, Signalgrass (signalgrass; 31 g ai/ha) | Plant response rating, Signalgrass (signalgrass; 62 g ai/ha) | Plant response rating, Signalgrass (signalgrass; 125 g ai/ha) | Plant response rating, Signalgrass (signalgrass; 250 g ai/ha) | Plant response rating, Fall Panicum (fall panicum; Postemergence, 31 g ai/ha) | Plant response rating, Fall Panicum (fall panicum; Postemergence, 125 g ai/ha) | Plant response rating, Fall Panicum (fall panicum; Postemergence, 250 g ai/ha) | Plant response rating, Fall Panicum (fall panicum; postemergence, 62 g ai/ha) | Plant response rating, Fall Panicum (fall panicum; postemergence, 500 g ai/ha) | Plant response rating, Crabgrass, Naked (crabgrass, naked; 16 g ai/ha) | further results
1 | CCc1cc(C(=O)NCC(F)(F)F)nn1Cc1ccnc(C(F)(F)F)c1 [Compound 78, 5-ethyl-N-(2,2,2-trifluoroethyl)-1-[[(2-trifluoromethyl)-4-pyridinyl]methyl]-1H-pyrazole-3-carboxamide] | 95 | 95 | 100 | 100 | 35 | 95 | 100 | 100 | 100 | 70 | 100 | 100 | 100 | 100 | 10 | 50 | 90 | 20 | 95 |  | Plant response rating, Smartweed (smartweed): 100
2 | CCc1cc(C(=O)NC(C)C)nn1Cc1ccnc(C(F)(F)F)c1 [Compound 103] | 100 | 100 | 100 | 100 | 90 | 100 | 100 | 100 | 100 | 65 | 80 | 100 | 100 | 100 |  |  |  |  |  | 100 | 
3 | CCOc1cc(C(=O)NCC(F)(F)F)nn1Cc1ccnc(C(F)(F)F)c1 [Compound 104] | 100 | 100 | 100 | 100 | 95 | 100 | 100 | 100 | 100 | 35 | 75 | 100 | 100 | 100 | 10 | 50 | 80 | 40 | 90 | 95 | Plant response rating, Smartweed (smartweed): 98
4 | CCCc1cc(C(=O)NCC(F)(F)F)nn1Cc1ccnc(C(F)(F)F)c1 [Compound 105] | 100 | 100 | 100 | 100 | 35 | 70 | 85 | 95 | 98 | 75 | 98 | 98 | 98 | 98 | 10 | 30 | 80 | 20 | 90 | 90 | Plant response rating, Smartweed (smartweed): 100
5 | CCCc1cc(C(=O)NCC(F)(F)F)nn1Cc1cc(C(F)(F)F)nn1C [Compound 138] |  |  |  |  |  |  |  |  |  |  |  |  |  |  |  |  |  |  |  |  | Plant response rating, Ryegrass, Italian (ryegrass, Italian; 62 g ai/ha): 35; Plant response rating, Ryegrass, Italian (ryegrass, Italian; 125 g ai/ha): 70; Plant response rating, Ryegrass, Italian (ryegrass, Italian; 250 g ai/ha): 90
6 | CCOc1cc(C(=O)NC2CC2)nn1Cc1ccnc(C(F)(F)F)c1 [Compound 189] | 100 | 100 |  |  | 35 | 100 | 100 |  |  | 60 | 95 | 100 |  |  |  |  |  |  |  | 100 | Plant response rating, Ryegrass, Italian (ryegrass, Italian; 62 g ai/ha): 40; Plant response rating, Ryegrass, Italian (ryegrass, Italian; 125 g ai/ha): 60; Plant response rating, Ryegrass, Italian (ryegrass, Italian; 250 g ai/ha): 95; Plant response rating, Crabgrass, Naked (crabgrass, naked; 4 g ai/ha): 40; Plant response rating, Crabgrass, Naked (crabgrass, naked; 8 g ai/ha): 95; Plant response rating, Barnyardgrass (barnyardgrass; 4 g ai/ha): 0; Plant response rating, Barnyardgrass (barnyardgrass; 8 g ai/ha): 0; Plant response rating, Signalgrass (signalgrass; 4 g ai/ha): 0; Plant response rating, Signalgrass (signalgrass; 8 g ai/ha): 30
